According to US20140187548A1, “6 SUBSTITUTED IMIDAZOPYRAZINES FOR USE AS MPS-1 AND TKK INHIBITORS IN THE TREATMENT OF HYPERPROLIFERATIVE DISORDERS” (BAYER INTELLECTUAL PROPERTY GMBH, priority 2010, published 2014):

Biological target: T1, human kinase Mps-1 (Homo sapiens, UniProt P33981)
T1 construct: N-terminally GST-tagged human full length recombinant Mps-1 kinase; GST (N); purchased Invitrogen, Karslruhe, Germany PV4071
T1 sequence (P33981 1-857): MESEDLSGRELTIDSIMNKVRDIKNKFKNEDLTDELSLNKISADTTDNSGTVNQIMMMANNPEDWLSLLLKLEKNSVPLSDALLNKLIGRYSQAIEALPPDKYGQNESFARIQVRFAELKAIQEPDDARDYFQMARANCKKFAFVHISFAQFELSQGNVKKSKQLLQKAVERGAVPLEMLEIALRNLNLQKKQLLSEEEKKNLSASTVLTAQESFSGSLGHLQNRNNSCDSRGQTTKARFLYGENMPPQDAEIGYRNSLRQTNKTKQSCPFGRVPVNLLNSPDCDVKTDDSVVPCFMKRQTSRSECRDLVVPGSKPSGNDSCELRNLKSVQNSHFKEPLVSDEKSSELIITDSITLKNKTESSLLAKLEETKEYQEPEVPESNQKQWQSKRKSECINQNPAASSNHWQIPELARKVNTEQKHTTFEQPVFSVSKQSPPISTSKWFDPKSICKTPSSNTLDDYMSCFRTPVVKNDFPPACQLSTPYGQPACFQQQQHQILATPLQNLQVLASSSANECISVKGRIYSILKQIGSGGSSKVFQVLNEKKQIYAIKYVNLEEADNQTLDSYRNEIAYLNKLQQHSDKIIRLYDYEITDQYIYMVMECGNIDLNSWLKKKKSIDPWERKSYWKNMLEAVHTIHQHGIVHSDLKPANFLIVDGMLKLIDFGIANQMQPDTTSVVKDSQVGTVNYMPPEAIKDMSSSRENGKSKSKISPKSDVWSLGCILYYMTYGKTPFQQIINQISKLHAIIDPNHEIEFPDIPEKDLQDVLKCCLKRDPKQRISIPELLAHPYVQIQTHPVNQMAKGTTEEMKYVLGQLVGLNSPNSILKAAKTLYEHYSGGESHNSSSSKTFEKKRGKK
Assay: Mps-1 kinase assay (TR-FRET)
Assay type: biochemical
Conditions: N-terminally GST-tagged human full length recombinant Mps-1; 10 μM ATP; 1 μM peptide substrate; 15 min pre-incubation; 60 min at 22° C.
Procedure: The human kinase Mps-1 phosphorylates a biotinylated substrate peptide. Detection of the phosphorylated product is achieved by time-resolved fluorescence resonance energy transfer (TR-FRET) from Europium-labelled anti-phospho-Serine/Threonine antibody as donor to streptavidin labelled with cross-linked allophycocyanin (SA-XLent) as acceptor. Compounds are tested for their inhibition of the kinase activity.
N-terminally GST-tagged human full length recombinant Mps-1 kinase (purchased from Invitrogen, Karslruhe, Germany, cat. no PV4071) was used. As substrate for the kinase reaction a biotinylated peptide of the amino-acid sequence […] (C-terminus in amide form, purchased from Biosynthan GmbH, Berlin) was used.
The concentration of Mps-1 in the assay was adjusted to the activity of the enzyme lot and was chosen appropriate to have the assay in the linear range, typical enzyme concentrations were in the range of about 1 nM (final conc. in the 5 μl assay volume).
The resulting mixture was incubated 1 h at 22° C. to allow the binding of the phosphorylated peptide to the anti-phospho(Ser/Thr)-Europium-antibody. Subsequently the amount of phosphorylated substrate was evaluated by measurement of the resonance energy transfer from the Europium-labelled anti-phospho(Ser/Thr) antibody to the Streptavidin-XLent. Therefore, the fluorescence emissions at 620 nm and 665 nm after excitation at 350 nm was measured in a Viewlux TR-FRET reader (PerkinElmer LAS, Rodgau-Jügesheim, Germany). The “blank-corrected normalized ratio” (a Viewlux specific readout, similar to the traditional ratio of the emissions at 665 nm and at 622 nm, in which blank and Eu-donor crosstalk are subtracted from the 665 nm signal before the ratio is calculated) was taken as the measure for the amount of phosphorylated substrate.

| SMILES | IC50 [nM] |
| --- | --- |
| CC(C)CNc1nc(-c2cccc(C(=O)Nc3ccccc3)c2)cn2c(-c3ccc(C(=O)NC4CC4)cc3)cnc12 [Example 1-57, 3-{3-[4-(cyclopropyl-carbamoyl)phenyl]-8-[(2-methylpropyl)amino]imidazo[1,2-a]pyrazin-6-yl}-N-phenylbenzamide] | 10.4 |
| NC(=O)CCNc1nc(-c2ccccc2)cn2c(-c3ccc(C(=O)NC4CC4)cc3)cnc12 [Example 2-42, 4-{8-[(3-amino-3-oxopropyl)amino]-6-phenylimidazo[1,2-a]pyrazin-3-yl}-N-cyclopropyl-benzamide] | 5 |
| COc1cccc(-c2cn3c(-c4ccc(C(=O)NC5CC5)cc4)cnc3c(NCC(C)C)n2)c1OC [Example 1-17, N-cyclopropyl-4-{6-(2,3-dimethoxyphenyl)-8-[(2-methylpropyl)amino]imidazo[1,2-a]pyrazin-3-yl}benzamide] | 14.4 |
| CC(C)CNc1nc(-c2ccc(OCC(C)C)cc2)cn2c(-c3ccc(C(=O)NC4CC4)cc3)cnc12 [Example 1-81, N-cyclopropyl-4-{6-[4-(2-methylpropoxy)phenyl]-8-[(2-methylpropyl)amino]imidazo[1,2-a]pyrazin-3-yl}benzamide] | 347 |
| CC(C)CNc1nc(-c2cccc3ncccc23)cn2c(-c3ccc(C(=O)NC4CC4)cc3)cnc12 [Example 1-20, N-cyclopropyl-4-{8-[(2-methylpropyl)amino]-6-(quinolin-5-yl)imidazo [1,2-a]pyrazin-3-yl} benzamide] | 1 |
| CCN(CC)CCCNc1nc(-c2ccccc2)cn2c(-c3ccc(C(=O)NC4CC4)cc3)cnc12 [Example 2-29, N-cyclopropyl-4-(8-{[3-(diethylamino)propyl]amino}-6-phenylimidazo[1,2-a]pyrazin-3-yl)benzamide] | 14.8 |
| CC(C)CNc1nc(-c2ccc(N(C)C)cc2)cn2c(-c3ccc(C(=O)NC4CC4)c(F)c3)cnc12 [Example 1-110, N-cyclopropyl-4-{6-[4-(dimethylamino)phenyl]-8-[(2-methylpropyl)amino]imidazo[1,2-a]pyrazin-3-yl}-2-fluoro-benzamide] | 12.6 |
| O=C(NC1CC1)c1ccc(-c2cnc3c(NCCc4ccccc4)nc(-c4ccccc4)cn23)cc1 [Example 2-7, N-cyclopropyl-4-{6-phenyl-8-[(2-phenylethyl)amino]imidazo[1,2-a]pyrazin-3-yl} benzamide] | 25 |
| CC(C)CNc1nc(-c2ccc(N(C)C)cc2)cn2c(-c3ccc(C(=O)NC4CC4)c(Cl)c3)cnc12 [Example 1-94, 2-chloro-N-cyclopropyl-4-{6-[4-(dimethylamino)phenyl]-8-[(2-methyl-propyl)amino]imidazo [1,2-a]pyrazin-3-yl} benzamide] | 19.8 |
| Cc1cc(-c2cnc3c(NCCC4CC4)nc(-c4ccc(F)cc4)cn23)ccc1C(=O)NC1CC1 [Example 10-10, N-cyclopropyl-4-{8-[(2-cyclopropylethyl)amino]-6-(4-fluorophenyl)imidazo [1,2-a]pyrazin-3-yl}-2-methylbenzamide] | 16.6 |
| O=C(NC1CC1)c1ccc(-c2cnc3c(NCCOCC(F)(F)F)nc(-c4ccccc4)cn23)cc1 [Example 2-88, N-cyclopropyl-4-(6-phenyl-8-{[2-(2,2,2-trifluoroethoxy)ethyl]amino}imidazo[1,2-a]pyrazin-3-yl)benzamide] | 3.6 |

More lines, in order of falling IC50, values ahead:

| IC50 [nM] | SMILES |
| --- | --- |
| 1110 | CC(C)CNc1nc(-c2cc(Cl)cc(Cl)c2)cn2c(-c3ccc(C(=O)NC4CC4)cc3)cnc12 [Example 1-10, N-cyclopropyl-4-{6-(3,5-dichlorophenyl)-8-[(2-methylpropyl)amino]imidazo[1,2-a]pyrazin-3-yl}benzamide] |
| 63.4 | CCN1CCC(CNc2nc(-c3ccc(F)cc3)cn3c(-c4ccc(C(=O)NC5CC5)c(C)c4)cnc23)C1 (stereo not shown) [Example 10-9, N-cyclopropyl-4-[8-{[(1-ethylpyrrolidin-3-yl)methyl]amino}-6-(4-fluorophenyl)imidazo [1,2-a]pyrazin-3-yl]-2-methylbenzamide] |
| 49 | CC(C)CNc1nc(-c2ccc3ccccc3c2)cn2c(-c3ccc(C(=O)NC4CC4)cc3)cnc12 [Example 1-42, N-cyclopropyl-4-{8-[(2-methylpropyl)amino]-6-(naphthalen-2-yl)imidazo[1,2-a]pyrazin-3-yl}benzamide] |
| 32.3 | Cc1cc(C)cc(-c2cn3c(-c4ccc(C(=O)NC5CC5)cc4)cnc3c(NCC(C)C)n2)c1 [Example 1-39, N-cyclopropyl-4-{6-(3,5-dimethylphenyl)-8-[(2-methylpropyl)amino]imidazo[1,2-a]pyrazin-3-yl}benzamide] |
| 30 | CC(C)CNc1nc(-c2ccc(C(F)(F)F)cc2)cn2c(-c3ccc(C(=O)NC4CC4)cc3)cnc12 [Example 1-36, N-cyclopropyl-4-{8-[(2-methylpropyl)amino]-6-[4-(trifluoromethyl)phenyl]imidazo[1,2-a]pyrazin-3-yl}benzamide] |
| 6.2 | O=C(NC1CC1)c1ccc(-c2cnc3c(NCCOCCO)nc(-c4ccccc4)cn23)cc1 [Example 2-80, N-cyclopropyl-4-(8-{[2-(2-hydroxyethoxy)ethyl]amino}-6-phenylimidazo[1,2-a]pyrazin-3-yl)benzamide] |
| 5.5 | CC(C)CNc1nc(-c2cccc([N+](=O)[O-])c2)cn2c(-c3ccc(C(=O)NC4CC4)cc3)cnc12 [Example 1-2, N-cyclopropyl-4-{8-[(2-methylpropyl)amino]-6-(3-nitrophenyl)imidazo [1,2-a]pyrazin-3-yl} benzamide] |
| 5.4 | CC(C)(O)CNc1nc(-c2ccc(F)cc2)cn2c(-c3ccc(C(=O)NC4CC4)c(F)c3)cnc12 [Example 1-115, N-cyclopropyl-2-fluoro-4-{6-(4-fluorophenyl)-8-[(2-hydroxy-2-methyl-propyl)amino]imidazo [1,2-a]pyrazin-3-yl} benzamide] |
| 5.1 | Cc1cc(-c2cnc3c(NCC(C)(C)O)nc(-c4ccccc4)cn23)ccc1C(=O)NC1CC1 [Example 1-137, N-cyclopropyl-4-{8-[(2-hydroxy-2-methylpropyl)amino]-6-phenylimidazo[1,2-a]pyrazin-3-yl}-2-methylbenzamide] |
| 4.9 | Cc1cccc(-c2cn3c(-c4ccc(C(=O)NC5CC5)cc4)cnc3c(NCC(C)C)n2)c1 [Example 1-8, N-cyclopropyl-4-{6-(3-methylphenyl)-8-[(2-methylpropyl)amino]imidazo[1,2-a]pyrazin-3-yl}benzamide] |
| 2.7 | CC(C)CNc1nc(-c2ccc(C(=O)N(C)C)cc2)cn2c(-c3ccc(C(=O)NC4CC4)cc3)cnc12 [Example 1-16, 4-{3-[4-(cyclopropyl-carbamoyl)phenyl]-8-[(2-methylpropyl)amino]imidazo[1,2-a]pyrazin-6-yl}-N,N-dimethyl-benzamide] |
| 1.3 | CNC(=O)c1ccc(-c2cn3c(-c4ccc(C(=O)NC5CC5)cc4)cnc3c(NCC(C)C)n2)cc1 [Example 1-31, 4-{3-[4-(cyclopropyl-carbamoyl)phenyl]-8-[(2-methylpropyl)amino]imidazo[1,2-a]pyrazin-6-yl}-N-methylbenzamide] |
| 1.2 | CC(C)CNc1nc(-c2cccc(C(N)=O)c2)cn2c(-c3ccc(C(=O)NC4CC4)cc3)cnc12 [Example 1-25, 4-{6-(3-carbamoylphenyl)-8-[(2-methylpropyl)amino]imidazo[1,2-a]pyrazin-3-yl}-N-cyclo-propylbenzamide] |
| 1.2 | CC(C)CNc1nc(-c2ccccc2CO)cn2c(-c3ccc(C(=O)NC4CC4)cc3)cnc12 [Example 1-77, N-cyclopropyl-4-{6-[2-(hydroxymethyl)phenyl]-8-[(2-methylpropyl)amino]imidazo[1,2-a]pyrazin-3-yl}benzamide] |
